Results on 78 compounds are retold here after the METLIN SMRT retention time set (Domingo-Almenara et al. 2019).

This data set is described as follows: gradient 5% acetonitrile 3 min, to 50% in 2 min, to 85% in 15 min, held 3 min, 100 µL/min. The conditions noted are these: column: Zorbax Extend-C18 2.1 x 50 mm; eluents: water / acetonitrile, 0.1% formic acid. The method in brief: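 Mixtures of ~100 pure standards were chromatographed on a Zorbax Extend-C18 column (2.1 × 50 mm, 1.8 μm) at 100 μL/min using water and acetonitrile, each with 0.1% formic acid. Detection used a quadrupole time-of-flight mass spectrometer in positive and negative ionization mode, and data collection spanned 3 months. Retention time was obtained from adduct peaks picked computationally and each checked manually.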
For the compound `Cc1ccc(Cl)cc1NC(=O)C(C)n1cnc2nc3c(cc2c1=O)CCCC3` (stereo not drawn), the RP-LC retention time was 809 s.
The result for `COc1cc(NC(C)=O)c2ncccc2c1NC(C)=O` reads 631 s; that for `CN(C)c1ccc(CNC(=O)c2cc3c(=O)n(C)ccc3n2C)cc1`, 579 s; that for `CCc1ccc(-c2noc(Cn3c(=O)n(Cc4ccc(OC)cc4)c(=O)c4sccc43)n2)cc1`, 1190 s.
Compound `Cc1cccc(NC(=O)C2CCN(S(C)(=O)=O)c3cc(Cl)ccc3O2)c1C` (stereo not drawn) had an RP-LC retention time of 1090 s.
For the compound `CCn1cc(-c2nc(C)c(C(=O)NCc3ccc(F)cc3F)s2)c2cccnc21`, the RP-LC retention time worked out at 969 s.
In the case of `CCCN(CCC)C1COc2cccc(OC)c2C1` (stereo not drawn), the RP-LC retention time amounted to 722 s.
`Cc1cccnc1NC(=O)c1c(O)c2cc(F)cc3c2n(c1=O)C(C)CC3` (stereo not drawn): the RP-LC retention time came to 848 s.
Then `CCCc1cc(=O)n(CC(=O)Nc2ncccc2C)cn1`, with 578 s.
Then `COCCNc1c(-c2cccc(F)c2)nc2sc(C(=O)N3CCCC3)c(C)n12`, with 783 s; and `O=C(NCCc1csc(-c2cccs2)n1)C1CCN(C(=O)COc2ccccc2)CC1`, with 783 s; and `COC(=O)c1ccc(C(=O)NCc2nc(C)no2)cc1`, with 637 s.
For the compound `CC(C)CCNC(=O)C1(C)CN(S(=O)(=O)c2ccccc2)CC(=O)N1c1ccc(Cl)cc1` (stereo not drawn), the RP-LC retention time came out at 992 s.
Then `O=C(Nc1ccc2c(c1)OCCO2)N1CC[C@@H]2CN(Cc3ccccc3)[C@@H]2C1`, with 796 s; and `CCn1c(=O)c(N2CCCC(C(=O)NC3CCN(Cc4ccccc4)CC3)C2)nc2ccccc21` (stereo not drawn), with 685 s; and `CCn1nc(C(=O)Nc2nc3c(s2)CCc2ccccc2-3)cc1C`, with 1060 s.
The result for `Cc1cc(F)cc2c(=O)c3c([nH]c12)CCN(CC(=O)Nc1ccccc1)C3` reads 616 s; that for `COc1ccccc1C(=O)N1CCC(n2cnnc2-c2ccccc2)C1` (stereo not drawn), 643 s; that for `Cc1ccc(-c2cc(C(=O)NCCCN3CCC(C)CC3)c(C)[nH]2)cc1C`, 725 s.
The result for `COc1ccc(C2CC(=O)N(c3ccc(OC)cc3)C(=O)C2)cc1` reads 864 s.
Compound `Cc1ccc(Cn2nc3ccc(S(=O)(=O)N4CCCC4)cn3c2=O)cc1C` had an RP-LC retention time of 952 s.
Consider `CCCCOC(=O)CSc1nnc(-c2cc(OC)c(OC)c(OC)c2)o1`, for which the RP-LC retention time was 1000 s.
Then `CCN1CCCn2cc(S(=O)(=O)Nc3ccc(F)c(F)c3)cc2C1=O`, with 768 s; and `CNC(=O)[C@@H]1CN(C(=O)Cn2c(=O)oc3ccccc32)C[C@H]1COC`, with 594 s.
`CCN1CCN(CCNC(=O)CCCn2c3ccccc3c3cnn(C)c(=O)c32)CC1` returned an RP-LC retention time of 579 s.
The result for `Cc1cc2nc(C(F)(F)F)c(=O)n(C(C)C(=O)NCCN3CCOCC3)c2cc1C` (stereo not drawn) reads 683 s.
As for `CN(C)CCN(Cc1ccco1)C(=O)Cn1nc(Cc2ccncc2)c2ccccc2c1=O`, the RP-LC retention time came out at 548 s.
The compound `CCN1C(=O)CCc2cc(NC(=O)c3n[nH]c4ccccc34)ccc21` displayed an RP-LC retention time of 761 s.
As for `Cc1nnc2n1CCN(C(=O)c1ccc(OC(F)(F)F)cc1)C2`, the RP-LC retention time was 606 s.
Take `COC(=O)c1c(C)[nH]c(C(=O)N2CCC(CC(=O)NC(c3cccs3)C(C)C)CC2)c1C` (stereo not drawn): the RP-LC retention time was 805 s.
`CCn1cc(CCNC(=O)NC)c2cccnc21` displayed an RP-LC retention time of 561 s.
The result for `NC(=O)c1ccc(NC(=O)CSC2=Nc3ccccc3N=C(c3ccccn3)C2)cc1` reads 738 s; that for `O=C1CN(S(=O)(=O)c2cccnc2)C2(CCCC2)CN1CC1CC1`, 746 s.
`O=C(Cc1ccc(NC(=O)c2ccc(F)c(F)c2)cc1)NC1CC1` returned an RP-LC retention time of 686 s.
As to `Cc1oc(-c2ccccc2)nc1Cn1cnc2nc3c(cc2c1=O)CC(C)CC3` (stereo not drawn), the RP-LC retention time was 1010 s.
Then `COc1ccccc1-c1nnc(-c2cc(S(=O)(=O)N3CCCCC3)ccc2Cl)o1`, with 1080 s; and `COc1ccc(OC)c(CNC(=O)c2nnc(-c3ccc(S(=O)(=O)N(C)C)cc3)o2)c1`, with 854 s; and `COc1ccc2c(C)c(CCC(=O)N[C@H](C(=O)O)c3ccccc3)c(=O)oc2c1`, with 744 s.
Turning to `O=C(Cc1csc2nc(-c3cccc(Br)c3)cn12)NCc1ccc(F)cc1`, the RP-LC retention time was found to be 909 s.
Compound `CCc1ccc(-c2noc(Cn3cnc4c(cnn4-c4cc(Cl)ccc4C)c3=O)n2)cc1` gave an RP-LC retention time of 1210 s.
The result for `COc1ccc(-c2noc(Cn3ccn(-c4c(C)cccc4C)c(=O)c3=O)n2)cc1` reads 870 s; that for `CCN1CCN(C(=O)Cc2c(C)nc3nc(-c4ccc(C(C)(C)C)cc4)nn3c2C)CC1`, 673 s; that for `O=C(CCc1ccccc1)NC1(c2nc(-c3ccncc3)no2)CCCCC1`, 902 s.
For `CC1=C(c2ccc(C)cc2)S(=O)(=O)N=C1N1CCCN(C(=O)c2ccccc2C)CC1`, the RP-LC retention time came out at 898 s.
In turn, `CCCNC(=O)C1CCCN(c2nc3ncn(CC(=O)Nc4ccc(CC)cc4)c(=O)c3s2)C1` (stereo not drawn) returned an RP-LC retention time of 741 s.
Compound `O=C1CCCc2c1cc(C(=O)NCc1ccccn1)c(=O)n2-c1ccc(C(F)(F)F)cc1` showed an RP-LC retention time of 678 s.
In turn, `COc1cc([C@@H]2c3cc4c(cc3[C@H](O)[C@@H](CO)[C@@H]2C(=O)NCc2ccc3c(c2)OCO3)OCO4)cc(OC)c1OC` displayed an RP-LC retention time of 709 s.
Compound `Cc1cc(C)n(-c2cc(NCCNC(=O)c3ccc(Br)o3)ncn2)n1` came in with an RP-LC retention time of 718 s.
`CC(=O)N1CCc2cc(-c3ccc(C(=O)NCc4ccccn4)cc3)ccc21`: the RP-LC retention time turned out to be 584 s.
Then `Nc1nc(N)nc(-c2cc(Cl)ccc2Cl)n1`, with 714 s; and `CCn1cnc(S(=O)(=O)N2CCC(C(=O)N3CCN(c4cc(C)ccc4C)CC3)CC2)c1`, with 878 s; and `O=S(=O)(c1ccc(N2CCN(c3ccccn3)CC2)nn1)C1CCCCC1`, with 608 s.
Turning to `O=C(c1csc(S(=O)(=O)N2CCC(C(=O)N3CCc4ccccc4C3)CC2)c1)N1CCCC1`, the RP-LC retention time turned out to be 817 s.
Then `COc1cc(NC(=O)Cc2c(C(=O)O)c(C)cn2C)cc(OC)c1`, with 778 s.
The result for `CN(C)CC(=O)N1CC(c2nc(-c3ccc(F)cc3)no2)C2(CCOCC2)C1` (stereo not drawn) reads 572 s; that for `COc1ccc(NC(=O)N2c3ccccc3CC2c2nc(C(C)C)no2)c(C)c1` (stereo not drawn), 1220 s; that for `O=S(=O)(NCC(c1cccnc1)c1c[nH]c2ccccc12)c1ccc(Cl)c(Cl)c1` (stereo not drawn), 787 s.
Then `CCOC(=O)N1CCC(NC(=O)C2CCCN(c3ncnc4c3oc3ccccc34)C2)CC1` (stereo not drawn), with 679 s.
Regarding `COc1ccc(NC(=O)Nc2c(-c3ccc(F)cc3)nc3ccccn23)cc1`, the RP-LC retention time stood at 649 s.
Take `O=C(NCCc1c[nH]c2ccccc12)C(=O)Nc1ccc2c(c1)OCCO2`: the RP-LC retention time was found to be 825 s.
Then `COc1cccc(CN2C(=O)CSc3c(c4ccccc4n3C)C2C(=O)NCCCOC(C)C)c1` (stereo not drawn), with 955 s.
Then `COc1ccc2nc(C(=O)NCc3ccc(Cl)cc3)cn2n1`, with 830 s; and `O=C(Cc1cccs1)N1CCc2nn(CC3CC3)c(=O)n2CC1`, with 676 s.
Then `CCc1ccc(Nc2nc(C(=O)NCCc3ccco3)nc3ccccc23)cc1`, with 855 s; and `COc1ccc2cc(C(=O)N3CCC(CC(=O)N4CCN(c5ccccn5)CC4)CC3)[nH]c2c1`, with 623 s; and `CCN1C(=O)COc2cc(-c3noc(C(=O)NCCc4ccccc4)n3)ccc21`, with 953 s.
Consider `COc1ccc(NC(=O)N2C[C@@H](F)C[C@H]2C(=O)N2CCCCC2)cc1F`, for which the RP-LC retention time worked out at 660 s.
The result for `CCOc1ccccc1NC(=O)Cn1c(C)nc2c(sc3nc(-c4ccccc4)ccc32)c1=O` reads 1160 s; that for `CCCC(=O)NCCn1c(=O)n(Cc2cccc(C)c2)c2cccnc21`, 759 s; that for `O=C(NC1CCCCCCC1)C1CC(=O)N(CCc2c[nH]c3ccc(F)cc23)C1` (stereo not drawn), 859 s.
`NCc1nnnn1-c1ccc(Cl)cc1` yielded an RP-LC retention time of 522 s.
Then `Cc1cc(C)n(CCC(=O)N2CCC(n3c(C)cnc3C)C2)n1` (stereo not drawn), with 563 s; and `O=C(C1CCCN1)N1CCC(OCc2nc(-c3cccnc3)no2)CC1` (stereo not drawn), with 572 s.
`O=C(NCC1CCCO1)c1ccc(CN2CCN(Cc3ccc(F)cc3)C(=O)C2=O)cc1` (stereo not drawn) showed an RP-LC retention time of 676 s.
Then `CCn1c(CCNC(=O)c2ccc(F)c(F)c2)nc2cccnc21`, with 641 s; and `O=C(COc1ccc(Cl)cc1)N1CC(n2cnnc2C2CC2)C1`, with 675 s.
As to `COc1ccccc1CNC(=O)CN1CCN(Cc2ccc(F)cc2)C(=O)C1=O`, the RP-LC retention time amounted to 732 s.
Compound `CC(=O)Nc1ccc(NC(=O)C2CCCN(S(=O)(=O)c3cc(-c4noc(C)n4)cs3)C2)cc1` (stereo not drawn) gave an RP-LC retention time of 744 s.
